# Data reported in patent publication US10392368B2, “Pyrazolo and triazolo bicyclic compounds as JAK kinase inhibitors” (THERAVANCE BIOPHARMA R&D IP, LLC, priority 2017, dated 2019).
# Like-named read-outs stand apart in the source and are kept apart here.
# Columns and labels:
# [1] = target: T1, JAK3 (Homo sapiens, UniProt P52333); assay: Biochemical JAK3 kinase assay (LanthaScreen); set-up: GST; purchased Life Technologies
# T1 sequence (P52333 1-1124): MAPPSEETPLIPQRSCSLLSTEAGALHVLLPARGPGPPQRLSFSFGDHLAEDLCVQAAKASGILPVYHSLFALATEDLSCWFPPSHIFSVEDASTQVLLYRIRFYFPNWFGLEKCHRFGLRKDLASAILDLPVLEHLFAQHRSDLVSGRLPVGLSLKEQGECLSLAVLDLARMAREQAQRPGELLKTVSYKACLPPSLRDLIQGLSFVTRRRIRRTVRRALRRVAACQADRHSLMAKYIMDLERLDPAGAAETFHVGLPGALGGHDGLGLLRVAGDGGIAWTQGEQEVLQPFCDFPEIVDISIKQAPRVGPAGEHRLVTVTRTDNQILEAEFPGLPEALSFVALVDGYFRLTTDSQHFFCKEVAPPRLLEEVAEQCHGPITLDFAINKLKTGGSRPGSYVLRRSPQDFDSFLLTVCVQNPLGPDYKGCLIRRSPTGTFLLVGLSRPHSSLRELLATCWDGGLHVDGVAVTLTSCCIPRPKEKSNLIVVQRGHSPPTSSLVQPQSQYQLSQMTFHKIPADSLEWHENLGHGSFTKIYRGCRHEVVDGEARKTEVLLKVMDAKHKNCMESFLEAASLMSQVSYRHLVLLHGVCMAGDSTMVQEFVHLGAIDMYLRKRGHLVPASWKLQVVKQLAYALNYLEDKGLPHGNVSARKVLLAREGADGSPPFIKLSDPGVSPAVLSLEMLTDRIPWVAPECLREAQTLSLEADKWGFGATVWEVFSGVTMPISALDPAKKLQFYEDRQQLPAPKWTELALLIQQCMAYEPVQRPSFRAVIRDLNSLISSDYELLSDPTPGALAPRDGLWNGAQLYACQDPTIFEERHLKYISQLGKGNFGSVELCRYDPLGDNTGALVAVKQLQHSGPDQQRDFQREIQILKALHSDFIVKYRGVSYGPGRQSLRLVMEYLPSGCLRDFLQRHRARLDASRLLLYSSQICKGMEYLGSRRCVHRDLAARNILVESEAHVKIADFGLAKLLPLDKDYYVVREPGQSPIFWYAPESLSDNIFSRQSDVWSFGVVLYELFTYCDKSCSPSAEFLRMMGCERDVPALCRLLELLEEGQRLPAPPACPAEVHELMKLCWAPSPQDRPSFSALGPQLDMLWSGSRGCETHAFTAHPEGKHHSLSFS
# Summary of the method: (§1)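 GST-JAK + GFP-STAT1 peptide + cpd, 1 h preinc RT; ATP start, 1% DMSO, 1 h RT; stop 10 mM EDTA + 2 nM Tb-anti-pSTAT1; 1 h; TR-FRET 520/495. % inhib vs DMSO/background → IC50 (4-PL) → pKi (Cheng-Prusoff).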
# [2] = test system: IL-2 stimulated pSTAT5 in Tall-1 T cells; assay: Cellular JAK3 potency assay: inhibition of IL-2 stimulated pSTAT5 in Tall-1 T cells; type: cell-based, human; conditions: for IC50: Homo sapiens, read-out: Tall-1 (pIC50) (converted)
# Summary of the method: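 Tall-1 human T cells were preincubated with compound for 1 h at 37° C, then stimulated with IL-2 (300 ng/ml final) for 30 min. STAT5 phosphorylation in lysates was read by AlphaLisa bead emission, and IC50 from inhibition curves is given as pIC50 (mean±SD).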
# [3] = target: T2, JAK1 (Homo sapiens, UniProt P23458); assay: Biochemical JAK1 kinase assay (LanthaScreen); conditions: for Ki: read-out: JAK 1 (pKi) (converted)
# T2 construct: GST; purchased Life Technologies
# Summary of the method: as §1
# [4] = selectivity JAK3 over JAK1, difference of pKi
# [5] = IL-2 stimulated pSTAT5, Tall-1 T cells
# [6] = read-out: JAK 3 (pKi) (converted)
# [7] = TALL-1, IL-2 stimulated pSTAT5, Tall-1 T cells
# [8] = selectivity: difference of pKi JAK3 and pKi JAK1
# [9] = TALL-1, IL-2 stimulated pSTAT5 in Tall-1 T cells
# T2 sequence (P23458 whole entry): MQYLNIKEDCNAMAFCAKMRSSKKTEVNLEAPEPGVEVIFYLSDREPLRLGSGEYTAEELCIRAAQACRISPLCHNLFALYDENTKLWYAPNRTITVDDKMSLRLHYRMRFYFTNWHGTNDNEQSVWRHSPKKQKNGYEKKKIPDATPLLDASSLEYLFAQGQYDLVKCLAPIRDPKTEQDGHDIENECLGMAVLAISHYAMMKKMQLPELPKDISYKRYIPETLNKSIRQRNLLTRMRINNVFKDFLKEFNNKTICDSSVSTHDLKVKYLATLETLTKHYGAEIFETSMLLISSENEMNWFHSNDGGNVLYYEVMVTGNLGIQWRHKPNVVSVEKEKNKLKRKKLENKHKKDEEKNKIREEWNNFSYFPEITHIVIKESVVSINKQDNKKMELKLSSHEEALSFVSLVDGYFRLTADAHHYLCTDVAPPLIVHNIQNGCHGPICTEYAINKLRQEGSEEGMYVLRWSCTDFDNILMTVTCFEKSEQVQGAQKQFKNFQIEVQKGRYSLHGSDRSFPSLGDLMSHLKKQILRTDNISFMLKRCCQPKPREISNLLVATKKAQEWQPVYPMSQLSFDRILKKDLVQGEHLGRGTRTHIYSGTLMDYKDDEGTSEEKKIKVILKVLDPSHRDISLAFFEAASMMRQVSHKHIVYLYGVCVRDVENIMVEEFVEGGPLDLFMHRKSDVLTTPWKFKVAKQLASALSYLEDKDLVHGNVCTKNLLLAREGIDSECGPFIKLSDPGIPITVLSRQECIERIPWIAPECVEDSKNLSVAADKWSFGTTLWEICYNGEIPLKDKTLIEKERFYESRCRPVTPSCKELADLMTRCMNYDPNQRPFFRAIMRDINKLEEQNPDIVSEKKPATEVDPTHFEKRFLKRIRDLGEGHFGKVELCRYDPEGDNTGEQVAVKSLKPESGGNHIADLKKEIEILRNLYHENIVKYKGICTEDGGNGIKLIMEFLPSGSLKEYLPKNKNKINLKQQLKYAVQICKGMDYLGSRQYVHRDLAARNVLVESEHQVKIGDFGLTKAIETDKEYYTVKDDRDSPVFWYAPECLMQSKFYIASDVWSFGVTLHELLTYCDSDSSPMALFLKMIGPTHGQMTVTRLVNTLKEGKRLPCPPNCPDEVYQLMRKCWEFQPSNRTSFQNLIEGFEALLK
Compound,JAK 3 (pKi) [1],"JAK3 (pKi)-JAK1 (pKi) [1, 4]","Tall-1 (pIC50) [2, 5]",JAK 1 (pKi) [3],"Ki [1, 6]","IC50 [2, 7]",Ki [3],"JAK3 (pKi)-JAK1 (pKi) [1, 8]","IC50 [2, 9]",Tall-1 (pIC50) ([2]; IL-2 stimulated pSTAT5 in Tall-1 T cells),Ki ([1]; JAK 3 (pKi))
C=CC(=O)N1CC2(CCC2Oc2nc(-c3ccc(O)c(F)c3)nc3[nH]ncc23)C1 (stereo not shown) [Compound 13-18],B (a pKi value between 9 and 10 (Ki between 1 nM and 0.1 nM)),A (a value of 3 or above),B (a pIC50 value between 6.7 (included) and 7.5 (IC50 between 200 nM and 32 nM)),E (a pKi value of 7 or below (Ki of 100 nM or above)),,,,,,,
C=CC(=O)N1CCC(COc2nc(-c3ccc(O)cc3)cc3[nH]ncc23)CC1 [Compound 14-6],A (a pKi value≥10 (Ki≤0.1 nM)),B (a value of 2.3 to 3),A (a pIC50 value≥7.5 (IC50≤32 nM)),D (a pKi value between 7 and 8 (Ki between 100 nM and 10 nM)),,,,,,,
C=CC(=O)N1CCC[C@@H](C(=O)Nc2cc(-c3ccc(O)cc3)cc3[nH]ncc23)C1 [Compound 12-55],,A (a value of 3 or above),,,< 0.0001 µM,0.0316 to 0.2 µM,> 0.1 µM,,,,
C=CC(=O)N1CC[C@@H](Sc2cc(-c3ccc(O)cc3)cc3[nH]ncc23)C1 [Compound 12-2],B (a pKi value between 9 and 10 (Ki between 1 nM and 0.1 nM)),B (a value of 2.3 to 3),B (a pIC50 value between 6.7 (included) and 7.5 (IC50 between 200 nM and 32 nM)),E (a pKi value of 7 or below (Ki of 100 nM or above)),,,,,,,
CN(C)CC=CC(=O)N1C2CCC1CC(Oc1nc(-c3ccc(O)c(Cl)c3)cc3[nH]ncc13)C2 (stereo not shown) [Compound 9-8],B (a pKi value between 9 and 10 (Ki between 1 nM and 0.1 nM)),C (a value of 1.8 to 2.3),C (a pIC50 value between 6 and 6.7 (IC50 between 1 μM and 200 nM)),D (a pKi value between 7 and 8 (Ki between 100 nM and 10 nM)),,,,,,,
C=CC(=O)N1CC(F)(C2(Oc3cc(-c4ccc(O)cc4)cc4[nH]ncc34)CC2)C1 [Compound 12-37],,B (a value of 2.3 to 3),,,0.0001 to 0.001 µM,0.0316 to 0.2 µM,0.01 to 0.1 µM,,,,
CN(C)C/C=C/C(=O)N1CC(Oc2cc(-c3ccc(O)cc3)cc3[nH]ncc23)(C(F)(F)F)C1 [Compound 5-25],B (a pKi value between 9 and 10 (Ki between 1 nM and 0.1 nM)),A (a value of 3 or above),A (a pIC50 value≥7.5 (IC50≤32 nM)),E (a pKi value of 7 or below (Ki of 100 nM or above)),,,,,,,
C=CC(=O)N1CC2(CC(Oc3cc(-c4ccc(O)cc4)nc4[nH]ncc34)C2)C1 [Compound 15-8],B (a pKi value between 9 and 10 (Ki between 1 nM and 0.1 nM)),B (a value of 2.3 to 3),B (a pIC50 value between 6.7 (included) and 7.5 (IC50 between 200 nM and 32 nM)),D (a pKi value between 7 and 8 (Ki between 100 nM and 10 nM)),,,,,,,
CN(C)C/C=C/C(=O)N1CCC(COc2nc(-c3ccc(O)c(F)c3)cc3[nH]ncc23)CC1 [Compound 14-11],B (a pKi value between 9 and 10 (Ki between 1 nM and 0.1 nM)),B (a value of 2.3 to 3),C (a pIC50 value between 6 and 6.7 (IC50 between 1 μM and 200 nM)),D (a pKi value between 7 and 8 (Ki between 100 nM and 10 nM)),,,,,,,
C=CC(=O)N1CCC(Oc2nc(-c3ccc(O)cc3)nc3[nH]ncc23)CC1 [Compound 6-12],,A (a value of 3 or above),,,0.0001 to 0.001 µM,0.0316 to 0.2 µM,> 0.1 µM,,,,
C=CC(=O)N1CCC(Oc2cc(-c3ccc(O)cc3)cc3[nH]ncc23)C(F)(F)C1 (stereo not shown) [Compound 6-8],,B (a value of 2.3 to 3),,,< 0.0001 µM,< 0.0316 µM,0.01 to 0.1 µM,,,,
CN(C)C/C=C/C(=O)N1CCC(C)(Nc2cc(-c3ccc(O)cc3)cc3[nH]ncc23)CC1 [Compound 7-1],B (a pKi value between 9 and 10 (Ki between 1 nM and 0.1 nM)),A (a value of 3 or above),C (a pIC50 value between 6 and 6.7 (IC50 between 1 μM and 200 nM)),E (a pKi value of 7 or below (Ki of 100 nM or above)),,,,,,,
COC[C@H]1CCN(C/C=C/C(=O)N2CC(COc3cc(-c4ccc(O)cc4)cc4[nH]ncc34)C2)C1 [Compound 3-134],,,,,0.0001 to 0.001 µM,,> 0.1 µM,A (a value of 3 or above),0.0316 to 0.2 µM,,
C=CC(=O)N1CC(N(C)c2cc(-c3ccc(O)cc3)cc3[nH]ncc23)C1 [Compound 5-9],B (a pKi value between 9 and 10 (Ki between 1 nM and 0.1 nM)),,,E (a pKi value of 7 or below (Ki of 100 nM or above)),,,,A (a value of 3 or above),,C (a pIC50 value between 6 and 6.7 (IC50 between 1 μM and 200 nM)),
O=C(/C=C/CN1CCC1)N1CC(COc2cc(-c3ccc(O)cc3)cc3[nH]ncc23)C1 [Compound 3-123],,,,,< 0.0001 µM,,> 0.1 µM,A (a value of 3 or above),0.2 to 1 µM,,
C=CC(=O)N1CC(COc2cc(-c3ccc(O)c(Cl)c3)cc3[nH]nc(C)c23)C1 [Compound 18-6],,B (a value of 2.3 to 3),,,0.0001 to 0.001 µM,< 0.0316 µM,0.01 to 0.1 µM,,,,
C=CC(=O)N1CC(COc2cc(-c3ccc(O)cc3)cc3[nH]nc(N(C)C)c23)C1 [Compound 18-11],,A (a value of 3 or above),,,0.0001 to 0.001 µM,0.2 to 1 µM,> 0.1 µM,,,,
C=CC(=O)N1CCC(C)(Oc2cc(-c3ccc(O)c(Cl)c3)cc3[nH]ncc23)CC1 [Compound 6-5],B (a pKi value between 9 and 10 (Ki between 1 nM and 0.1 nM)),A (a value of 3 or above),A (a pIC50 value≥7.5 (IC50≤32 nM)),E (a pKi value of 7 or below (Ki of 100 nM or above)),,,,,,,
"C#CC(=O)N1CC[C@H](Oc2cc(-c3ccc(O)cc3)cc3[nH]ncc23)C1 [Compound 17, (S)-1-(3-((6-(4-hydroxyphenyl)-1H-indazol-4-yl)oxy)pyrrolidin-1-yl)prop-2-yn-1-one]",,,,,,,> 0.1 µM,B (a value of 2.3 to 3),0.2 to 1 µM,,0.0001 to 0.001 µM
